pEC50: −log10 of the molar value. Entries after “also recorded” stand apart in the source; their conditions may differ. Like-named read-outs stand apart in the source and are kept apart here.
Experiments:
MAO-A = biological target: T1, MAO-A (Homo sapiens, UniProt P21397); test: MAO-A activity (metabolism of compound); conditions: versus the DMT analogs
T1 sequence (P21397 1-527): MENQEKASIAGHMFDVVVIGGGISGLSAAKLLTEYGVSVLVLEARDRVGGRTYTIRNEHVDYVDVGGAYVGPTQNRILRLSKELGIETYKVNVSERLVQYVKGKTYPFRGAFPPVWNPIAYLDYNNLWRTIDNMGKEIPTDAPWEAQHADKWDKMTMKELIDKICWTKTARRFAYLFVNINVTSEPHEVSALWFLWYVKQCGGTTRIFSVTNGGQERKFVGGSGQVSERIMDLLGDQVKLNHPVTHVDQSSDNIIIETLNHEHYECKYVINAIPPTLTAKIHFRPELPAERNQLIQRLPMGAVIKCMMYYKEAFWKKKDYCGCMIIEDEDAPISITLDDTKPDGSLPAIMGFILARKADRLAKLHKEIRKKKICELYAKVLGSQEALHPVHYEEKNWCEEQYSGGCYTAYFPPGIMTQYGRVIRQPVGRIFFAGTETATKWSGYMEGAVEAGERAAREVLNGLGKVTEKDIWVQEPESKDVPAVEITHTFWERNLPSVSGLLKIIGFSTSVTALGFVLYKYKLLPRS

C57BL/6J mice [1] = test: Head twitch response (HTR); type: in vivo, mouse; conditions: s.c., presence or absence of 5-HT1A antagonist WAY-100635
Method: The head-twitch response evaluation was performed by trained observers who were blinded to both drug and dose. Mice were habituated to the testing room 30 min. The body weight of each mouse was recorded. The HTR was defined as a rapid rotational movement of the head around the longitudinal axis of the animals' body. Mice were administered with vehicle or WAY100,635 (1 mg/kg or 2 mg/kg, sc). Fifteen minutes after the pretreatment injection mice were administered either 4F, 5-MeO-MET (0.1, 0.3, 1 or 3 mg/kg, sc) or 5-MeO-MET (0.3, 1, 3, and 10 mg/kg, sc) and placed in a novel observation cage. An overhead camera (GoPro HERO9 at a 120 Hz, San Mateo, CA, US) recorded their movements. Observers scored HTR from recorded footage for the first 10-min period.

5-HT2A [2] = biological target: T2, 5-HT2A (Homo sapiens, UniProt P28223); test: cell-based; parameters: expressed in transfected cells; host or cells: HEK293-T; conditions: for Emax: read-out: 5-HT2A (IP1) Emax (%5-HT)
T2 sequence (P28223 whole entry): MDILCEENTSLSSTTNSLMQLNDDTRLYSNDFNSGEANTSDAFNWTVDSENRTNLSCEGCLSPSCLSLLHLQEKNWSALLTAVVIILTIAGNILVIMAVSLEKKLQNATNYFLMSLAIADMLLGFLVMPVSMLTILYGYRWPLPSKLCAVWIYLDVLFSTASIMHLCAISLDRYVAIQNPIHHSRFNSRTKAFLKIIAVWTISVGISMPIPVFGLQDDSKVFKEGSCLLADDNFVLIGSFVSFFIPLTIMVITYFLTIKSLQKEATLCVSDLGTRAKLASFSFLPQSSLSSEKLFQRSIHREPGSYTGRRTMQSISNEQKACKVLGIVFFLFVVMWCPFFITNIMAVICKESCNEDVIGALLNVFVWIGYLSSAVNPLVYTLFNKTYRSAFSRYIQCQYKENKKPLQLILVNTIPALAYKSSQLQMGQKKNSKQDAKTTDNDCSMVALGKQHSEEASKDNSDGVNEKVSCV

5-HT2B = 5-HT2B (Homo sapiens, UniProt P41595); test: IP1 functional assay 5-HT2B; type: cell-based; conditions: for Emax: read-out: 5-HT2B (IP1) Emax (%5-HT)
Chain of 5-HT2B (P41595 whole entry, species assumed): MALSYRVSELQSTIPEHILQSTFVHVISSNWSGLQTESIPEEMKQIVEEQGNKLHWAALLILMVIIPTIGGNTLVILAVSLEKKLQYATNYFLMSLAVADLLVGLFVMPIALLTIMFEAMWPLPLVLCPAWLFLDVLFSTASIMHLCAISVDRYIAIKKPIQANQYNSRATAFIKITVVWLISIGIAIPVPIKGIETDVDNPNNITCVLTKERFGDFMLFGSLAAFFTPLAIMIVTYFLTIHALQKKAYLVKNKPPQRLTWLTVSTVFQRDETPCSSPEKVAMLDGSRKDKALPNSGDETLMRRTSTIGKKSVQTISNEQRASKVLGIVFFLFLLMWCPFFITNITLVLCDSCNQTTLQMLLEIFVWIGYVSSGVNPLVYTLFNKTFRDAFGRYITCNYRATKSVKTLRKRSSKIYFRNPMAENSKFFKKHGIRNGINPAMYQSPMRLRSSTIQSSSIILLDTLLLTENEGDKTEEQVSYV

5-HT1A [3] = biological target: T3, 5-HT1A (Homo sapiens, UniProt P08908); test: BRET signaling assay: 5-HT1A-mediated activation of heterotrimeric Gi1 (TRUPATH, HEK293-T); conditions: Gi BRET EC50
mice = test: Open field locomotor activity; type: in vivo, mouse; conditions: mice, s.c.
human 5-HT1A = biological target: T4, human 5-HT1A (Homo sapiens, UniProt P08908); test: cell-based
T4 sequence (P08908 1-422): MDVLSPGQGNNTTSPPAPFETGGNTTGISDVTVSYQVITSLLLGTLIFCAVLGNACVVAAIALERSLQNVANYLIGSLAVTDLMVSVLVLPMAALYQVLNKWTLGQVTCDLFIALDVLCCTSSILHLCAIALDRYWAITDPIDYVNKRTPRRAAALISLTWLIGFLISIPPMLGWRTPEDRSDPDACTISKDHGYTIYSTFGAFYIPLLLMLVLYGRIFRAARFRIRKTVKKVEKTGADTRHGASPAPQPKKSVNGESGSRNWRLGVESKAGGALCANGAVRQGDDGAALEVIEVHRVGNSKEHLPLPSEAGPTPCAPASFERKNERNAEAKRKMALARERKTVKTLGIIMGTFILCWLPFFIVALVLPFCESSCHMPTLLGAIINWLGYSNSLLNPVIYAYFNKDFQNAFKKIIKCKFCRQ

[4] = Microsomal stability, human liver microsomes; type: in vitro ADME; conditions: versus the DMT analogs
Method: Microsomal incubations were carried out in 96-well plates in 5 aliquots of 30 μL each (one for each time point). Liver microsomal incubation medium comprised of phosphate buffer (100 mM, pH 7.4), MgCl2 (3.3 mM), NADPH (3 mM), glucose-6-phosphate (5.3 mM), glucose-6 phosphate dehydrogenase (0.67 units/ml) with 0.42 mg of liver microsomal protein per ml. In the control reactions the NADPH-cofactor system was substituted with phosphate buffer. Test compounds (2 μM, final solvent concentration 1.6%) were incubated with microsomes at 37° C., shaking at 100 rpm. Each reaction was performed in duplicates. Five time points over 90 minutes were analyzed. The reactions were stopped by adding 5 volumes of methanol containing internal standard to incubation aliquots, followed by protein sedimentation by centrifuging at 5500 rpm for 4 minutes. Supernatants were analyzed using the HPLC system coupled with tandem mass spectrometer. The elimination constant (kel), half-life (t1/2) and intrinsic clearance (Clint) were determined in plot of […] versus time, using linear regression analysis.

5-HT2A [5] = biological target: T2, 5-HT2A; test: cell-based
5-HT1A [6] = biological target: T3, 5-HT1A; test: cell-based
C57BL6J mice = test: Catalepsy bar test (tetrabenazine / haloperidol induced); type: in vivo, mouse; conditions: 10.0 & 20.0 mg/kg s.c., 60 min post inj., vs vehicle
Source text: Catalepsy, characterized by muscular rigidity and fixity of posture irrespective of external stimuli (Mann et al. 2015, Karuppagounder et al 2012) is a recognized model for Parkinson's disease (PD) in rodents, induced by dopamine (DA) antagonists such as haloperidol, and DA depleting agents like tetrabenazine (TBZ) (Jastrzębska-Więsek et al. 2022, Bhangale et al. 2016). TBZ, a reversible inhibitor of the type-2 vesicular monoamine transporter, primarily affects dopamine neurons by blocking vesicular storage and depleting monoamines (Jastrzębska-Więsek et al. 2022). In contrast, Haloperidol, a nonselective D2 dopamine antagonist, […] (Bhangale et al. 2016). C57BL6J mice are administered TBZ/Haloperidol at t=0 min and 4-F, 5-MeO-PyrT at t=30 min via subcutaneous injection, with Haloperidol (0.5 mg/kg) given intraperitoneal injection. Mice are tested individually at t=60 min, and catalepsy is defined by the absence of movement for 30-60 seconds with a cutoff time set to 60 second. […] The automated Maze Engineers Catalepsy Bar test, featuring sensors to detect forelimb removal from the bar, facilitates automatic recording of forelimb movement duration from the bar to the ground.

C57BL/6J mice [7] = test: Sucrose preference test after chronic social defeat stress; type: in vivo, mouse; conditions: stressed mice, relative to vehicle-treated animals
Source text: The sucrose preference test is a volitional two-bottle choice procedure in which mice are given the choice between consuming water and a 1% sucrose solution. This paradigm has been used extensively to assess the effects of stress-induced anhedonia. On day 10 of CSDS mice were individually housed and habituated to two bottles containing just water. Twenty-four hours later, following the SI test, one bottle was replaced with a 1% sucrose solution (w/v) made with water from the animal vivarium. Mice had ad libitum overnight access to both bottles and preference for sucrose over water was calculated as follows: [sucrose/(sucrose+water)*100]. Data were averaged from two independent experiments. A total of 27 mice were administered vehicle (9 control, 18 stress), 27 received 4-F, 5-MeO-PyrT (9 control, 18 stress), 15 received WAY-100635 (5 control, 10 stress), and 15 received 4-F, 5-MeO-PyrT+WAY-100635 (5 control, 10 stress). More animals were used for the stressed groups due to the inherent resilience of mice to social defeat stress (Krishnan et al. 2007). Analysis of different treatment conditions of control and stressed animals was done in GraphPad Prism using two-way ANOVA.

| Compound | MAO A metabolism (MAO-A) | pEC50 (5-HT2A [2]) | Emax (5-HT2A [2]) [%] | Emax (5-HT2B; Table 3) [%] | pEC50 (human 5-HT1A) | pEC50 (5-HT2B) | microsomal stability in human microsomes [4] | pEC50 (5-HT2A [5]) | pEC50 (5-HT1A [6]) | also measured |
| --- | --- | --- | --- | --- | --- | --- | --- | --- | --- | --- |
| C=CCN(C)CCc1c[nH]c2ccc(OC)c(F)c12 [4-F, 5-MeO MALT] | markedly slower MAO A metabolism versus the DMT analogs |  |  |  |  |  |  |  |  |  |
| CCN(C)CCc1c[nH]c2ccc(OC)cc12 [Compound 5-MeO-MET] |  | 7.02 | 107 | 62 |  |  |  |  |  | head-twitch response (HTR), measure of 5-HT2A-mediated hallucinogenic activity (C57BL/6J mice [1]): robust HTR in the presence of WAY100; also recorded: robust dose-dependent activity; pEC50 (5-HT2B; Table 3, read-out: 5-HT2B (IP1) EC50): 6.89; pEC50 (5-HT1A [3]): 7.59; locomotor suppression in the open field (OF) test (mice): dose-dependent locomotor suppression |
| CCCN(C)CCc1c[nH]c2ccc(OC)c(F)c12 [Compound 28, N-(2-(4-fluoro-5-methoxy-1H-indol-3-yl)ethyl)-N-methylpropan-1-amine] | markedly slower MAO A metabolism versus the DMT analogs | 6.60 | 106 | 47 | 9.38 | 7.14 | greater stability in human microsomes versus the DMT analogs | 6.94 | 8.51 |  |
| CCCN(CCC)CCc1c[nH]c2ccc(OC)c(F)c12 [Compound 30, N-(2-(4-fluoro-5-methoxy-1H-indol-3-yl)ethyl)-N-propylpropan-1-amine] | markedly slower MAO A metabolism versus the DMT analogs | 6.74 | 100 | 86 | 8.88 | 7.00 | greater stability in human microsomes versus the DMT analogs | 6.85 | 8.43 |  |
| COc1cc2c(cc1OC)C1CC(=O)C(CC(C)C)CN1CC2 (stereo not shown) [Tetrabenazine] |  |  |  |  |  |  |  |  |  | induction of catalepsy (C57BL6J mice): significantly induces catalepsy |
| COc1ccccc1N1CCN(CCN(C(=O)C2CCCCC2)c2ccccn2)CC1 [WAY-100635, reference compound] |  |  |  |  |  |  |  |  |  | sucrose preference (C57BL/6J mice [7]): not statistically significant |

Source: patent US20260034119A1, “5-METHOXY-N,N-[…][…], THEIR […], AND METHODS FOR TREATMENT OF NEUROLOGICAL, […], AND SUBSTANCE USE DISORDERS” (priority 2023, published 2026)
